Reference: ChEMBL document CHEMBL1157969, “Stellettin A induces oxidative stress and apoptosis in HL-60 human leukemia and LNCaP prostate cancer cell lines” (J Nat Prod, 2006)
Values after ≈ are worked out from the molar mass of the structure shown. Active and inactive are the calls of the source. The calls are words filed in the database; no cut-off is given here.

What was measured:
[1] = system: HL-60; experiment: Induction of apoptosis in human HL60 cells at 4 ug/mL after 24 hrs in presence of antisense caspase-3 oligonucleotide; assay type: functional, cell-based
[2] = system: LNCaP; experiment: Induction of apoptosis in human LNCaP cells assessed as decrease in Bcl-2 levels at 20 […] after 24 hrs by immunoblot; assay type: functional, cell-based
[3] = system: HL-60; experiment: Cytotoxicity against human HL60 cells after 48 hrs by MTT assay; assay type: functional, cell-based; conditions: HL-60, 48 h
[4] = system: HL-60; experiment: Induction of apoptosis in human HL60 cells assessed as increase in caspase-3 levels at 1 […] after 24 hrs by immunoblot; assay type: functional, cell-based
[5] = system: HL-60; experiment: Induction of apoptosis in human HL60 cells assessed as mean fluorescence intensity of mitochondrial membrane potential dissipation at 1 ug/mL after 24 hrs; assay type: functional
[6] = system: LNCaP; experiment: Cytotoxicity against human LNCaP cells after 48 hrs by MTT assay; assay type: functional, cell-based
[7] = system: LNCaP; experiment: Induction of apoptosis in human LNCaP cells assessed as increase in transcription of NADPH oxidase component p47phox after 5 hrs by immunoblot; assay type: functional, cell-based
[8] = system: LNCaP; experiment: Induction of apoptosis in human LNCaP cells assessed as increase in caspase-3 levels at 20 […] after 24 hrs by immunoblot; assay type: functional, cell-based
[9] = system: HL-60; experiment: Induction of apoptosis in human HL60 cells assessed as increase in transcription of NADPH oxidase component p67phox after 5 hrs by immunoblot; assay type: functional, cell-based
[10] = system: HL-60; experiment: Induction of apoptosis in human HL60 cells at 4 ug/mL after 24 hrs in presence of sense caspase-3 oligonucleotide; assay type: functional
[11] = system: LNCaP; experiment: Induction of apoptosis in human LNCaP cells assessed as apoptotic bodies at 20 ug/mL after 24 hrs by fluorescence microscopy; assay type: functional
[12] = system: HL-60; experiment: Induction of apoptosis in human HL60 cells assessed as increase in FasL levels after 24 hrs by immunoblot; assay type: functional, cell-based
[13] = system: LNCaP; experiment: Induction of apoptosis in human LNCaP cells assessed as mean fluorescence intensity of mitochondrial membrane potential dissipation at 20 ug/mL after 24 hrs; assay type: functional
[14] = system: HL-60; experiment: Induction of apoptosis in human HL60 cells assessed as increase in transcription of NADPH oxidase component p22phox after 5 hrs by immunoblot; assay type: functional, cell-based
[15] = system: LNCaP; experiment: Induction of apoptosis in human LNCaP cells assessed as increase in transcription of NADPH oxidase component p22phox after 5 hrs by immunoblot; assay type: functional, cell-based
[16] = system: HL-60; experiment: Induction of apoptosis in human HL60 cells assessed as decrease in Bcl-2 levels at 1 […] after 24 hrs by immunoblot; assay type: functional, cell-based
[17] = system: HL-60; experiment: Induction of apoptosis in human HL60 cells assessed as apoptotic bodies at 4 ug/mL after 24 hrs by fluorescence microscopy; assay type: functional
[18] = system: HL-60; experiment: Induction of apoptosis in human HL60 cells assessed as increase in transcription of NOX4 after 5 hrs by immunoblot; assay type: functional, cell-based
[19] = system: HL-60; experiment: Induction of apoptosis in human HL60 cells assessed as increase in transcription of NADPH oxidase component p47phox after 5 hrs by immunoblot; assay type: functional, cell-based
[20] = system: HL-60; experiment: Induction of apoptosis in human HL60 cells assessed as increase in transcription of NOX5 after 5 hrs by immunoblot; assay type: functional, cell-based
[21] = system: HL-60; experiment: Induction of apoptosis in human HL60 cells assessed as increase in transcription of NADPH oxidase component gp91phox after 5 hrs by immunoblot; assay type: functional, cell-based
[22] = system: LNCaP; experiment: Induction of apoptosis in human LNCaP cells assessed as increase in transcription of NADPH oxidase component gp91phox after 5 hrs by immunoblot; assay type: functional, cell-based
[23] = system: LNCaP; experiment: Induction of apoptosis in human LNCaP cells assessed as increase in FasL levels after 24 hrs by immunoblot; assay type: functional, cell-based
[24] = system: HL-60; experiment: Induction of apoptosis in human HL60 cells assessed as increase in transcription of NOX1 after 5 hrs by immunoblot; assay type: functional, cell-based
[25] = system: HL-60; experiment: Induction of apoptosis in human HL60 cells assessed as mean fluorescence intensity of mitochondrial membrane potential dissipation at 4 ug/mL after 24 hrs; assay type: functional
[26] = system: LNCaP; experiment: Induction of apoptosis in human LNCaP cells assessed as increase in transcription of NADPH oxidase component p67phox after 5 hrs by immunoblot; assay type: functional, cell-based
[27] = system: LNCaP; experiment: Induction of apoptosis in human LNCaP cells assessed as ROS generation; assay type: functional, cell-based

C\C(=C/C=C/C(C)=C1/C(=O)C[C@H]2[C@@]3(C)CCC(=O)C(C)(C)[C@@H]3CC[C@]12C)c1ccc(C)c(=O)o1 [STELLETIN A]
Activity [1]: inactive | Activity [2]: inactive | IC50 [3]: 0.4 µg/mL (≈ 0.865 µM) | Activity [4]: Active | Activity [5]: 23.28 | IC50 [6]: 120 µg/mL (≈ 259 µM) | Activity [7]: inactive | Activity [8]: inactive | Activity [9]: Dose-dependent effect | Activity [10]: 51% | Activity [11]: <10% | Activity [12]: Dose-dependent effect | Activity [13]: 38.82 | Activity [14]: Dose-dependent effect | Activity [15]: inactive | Activity [16]: Active | Activity [17]: 56% | Activity [18]: inactive | Activity [19]: Dose-dependent effect | Activity [20]: inactive | Activity [21]: Dose-dependent effect | Activity [22]: inactive | Activity [23]: Dose-dependent effect | Activity [24]: inactive | Activity [25]: 3.09 | Activity [26]: inactive | Activity [27]: Active
